From patent US20110178062A1, “INDOLE AND BENZOTHIOPHENE COMPOUNDS AS MODULATORS OF THE HISTAMINE H3 RECEPTOR” (priority 2007, published 2011)

Target: T1, cloned human H3 receptors, stably expressed in SK-N-MC cells (Homo sapiens, UniProt Q9Y5N1)
T1 construct: expressed in transfected cells; host or cells: SK-N-MC cells
Assay: H3 Receptor Binding (Human)
Procedure: Binding of compounds to the cloned human H3 receptors, stably expressed in SK-N-MC cells, was performed as described by Barbier, A. J. et al. (Br. J. Pharmacol. 2004, 143(5), 649-661). Data for compounds tested in this assay are presented in Table 1 as an average of the results obtained.

[1] = average of the results obtained

T1 sequence (Q9Y5N1 whole entry): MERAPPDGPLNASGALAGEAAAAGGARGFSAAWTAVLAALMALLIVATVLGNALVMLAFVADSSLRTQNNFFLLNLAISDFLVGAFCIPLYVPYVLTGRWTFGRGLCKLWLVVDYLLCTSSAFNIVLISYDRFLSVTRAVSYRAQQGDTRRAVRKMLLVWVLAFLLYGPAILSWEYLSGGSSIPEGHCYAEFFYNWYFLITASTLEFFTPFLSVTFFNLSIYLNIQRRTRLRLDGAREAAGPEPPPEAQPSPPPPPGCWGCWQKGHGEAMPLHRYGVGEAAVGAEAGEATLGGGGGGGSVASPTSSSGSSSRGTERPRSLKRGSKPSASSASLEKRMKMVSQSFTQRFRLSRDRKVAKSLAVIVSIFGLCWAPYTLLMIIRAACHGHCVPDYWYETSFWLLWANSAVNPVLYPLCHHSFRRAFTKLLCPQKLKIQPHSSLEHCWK

O=C(c1ccc2c(CN3CCN(C4CCC4)CC3)c[nH]c2c1)N1CCOCC1 [Example 75, [3-(4-Cyclobutyl-piperazin-1-ylmethyl)-1H-indol-6-yl]-morpholin-4-yl-methanone]
Ki [1]: 43 nM

O=C(NCc1ccncc1)c1ccc2c(CN3CCOCC3)c[nH]c2c1 [Example 11, 3-Morpholin-4-ylmethyl-1H-indole-6-carboxylic acid (pyridin-4-ylmethyl)-amide]
Ki [1]: 228 nM

O=C(c1ccc2c(CN3CCN(C4CCCC4)CC3)c[nH]c2c1)N1CCSCC1 [Example 68, [3-(4-Cyclopentyl-piperazin-1-ylmethyl)-1H-indol-6-yl]-thiomorpholin-4-yl-methanone]
Ki [1]: 36 nM

O=C(c1ccc2c(CN3CCN(C4CCCC4)CC3)c[nH]c2c1)N1CCC(c2ccccc2)CC1 [Example 86, [3-(4-Cyclopentyl-piperazin-ylmethyl)-1H-indol-6-yl]-(4-phenyl-piperidin-1-yl)-methanone]
Ki [1]: 27 nM

CC(C)N1CCN(C(=O)c2ccc3c(CN4CCN(C(=O)c5ccncc5)CC4)c[nH]c3c2)CC1 [Example 62, (4-Isopropyl-piperazin-1-yl)-{3-[4-(pyridine-4-carbonyl)-piperazin-1-ylmethyl]-1H-indol-6-yl}-methanone]
Ki [1]: 7 nM

O=C(c1ccc2scc(CN3CCCCC3)c2c1)N1CCN(C2CCC2)CC1 [Example 103, (4-Cyclobutyl-piperazin-1-yl)-(3-piperidin-1-ylmethyl-benzo[b]thiophen-5-yl)-methanone]
Ki [1]: 7 nM

CC(C)N1CCN(C(=O)c2ccc3c(CN4CCN(c5ccncc5)CC4)c[nH]c3c2)CC1 [Example 64, (4-Isopropyl-piperazin-1-yl)-[3-(4-pyridin-4-yl-piperazin-1-ylmethyl)-1H-indol-6-yl]-methanone]
Ki [1]: 1 nM

CC(=O)N1CCN(Cc2c[nH]c3cc(C(=O)N4CCN(C(C)C)CC4)ccc23)CC1 [Example 48, 1-{4-[6-(4-Isopropyl-piperazine-1-carbonyl)-1H-indol-3-ylmethyl]-piperazin-1-yl}-ethanone]
Ki [1]: 5 nM

O=C(c1ccc2c(CN3CCN(C4CCC4)CC3)c[nH]c2c1)N1CCC(CO)CC1 [Example 81, [3-(4-Cyclobutyl-piperazin-1-ylmethy)l-1H-indol-6-yl]-(4-hydroxymethyl-piperidin-1-yl)-methanone]
Ki [1]: 17 nM

CC(C)N1CCN(C(=O)c2ccc3c(CN4CCN(C(=O)c5ccccc5)CC4)c[nH]c3c2)CC1 [Example 63, [3-(4-Benzoyl-piperazin-1-ylmethyl)-1H-indol-6-yl]-(4-isopropyl-piperazin-1-yl)-methanone]
Ki [1]: 1 nM

CN(C)C1CCN(Cc2c[nH]c3cc(C(=O)N4CCC(c5ccccc5)CC4)ccc23)C1 (stereo not shown) [Example 87, [3-(3-Dimethylamino-pyrrolidin-1-ylmethyl)-1H-indol-6-yl]-(4-phenyl-piperidin-1-yl)-methanone]
Ki [1]: 20 nM

CN(C)C1CCN(Cc2c[nH]c3cc(C(=O)N4CCC(c5ccccc5)CC4)ccc23)CC1 [Example 88, [3-(4-Dimethylamino-piperidin-1-ylmethyl)-1H-indol-6-yl]-(4-phenyl-piperidin-1-yl)-methanone]
Ki [1]: 186 nM

CC(C)N1CCN(C(=O)c2ccc3scc(C(=O)N4CCCCC4)c3c2)CC1 [Example 104, [5-(4-Isopropyl-piperazine-1-carbonyl)-benzo[b]thiophen-3-yl]-piperidin-1-yl-methanone]
Ki [1]: 772 nM

CC(C)N1CCN(C(=O)c2ccc3[nH]ccc3c2)CC1 [(1H-Indol-5-yl)-(4-isopropyl-piperazin-1-yl)-methanone]
Ki (stated in text for the intermediate of Example 35, Step A): 97 nM

CC(C)N1CCN(C(=O)c2ccc3c(CN4CCN(S(C)(=O)=O)CC4)c[nH]c3c2)CC1 [Example 54, (4-Isopropyl-piperazin-1-yl)-[3-(4-methanesulfonyl-piperazin-1-ylmethyl)-1H-indol-6-yl]-methanone]
Ki [1]: 12 nM

O=C(c1ccc2[nH]cc(CN3CCN(C4CCC4)CC3)c2c1)N1CCCCC1 [Example 38, [3-(4-Cyclobutyl-piperazin-1-ylmethyl)-1H-indol-5-yl]-piperidin-1-yl-methanone]
Ki [1]: 427 nM

CN(C)C1CCN(Cc2c[nH]c3cc(C(=O)N4CCC(Cc5ccccc5)CC4)ccc23)C1 (stereo not shown) [Example 101]
Ki [1]: 9 nM

O=C(NCc1cccnc1)c1ccc2c(CN3CCOCC3)c[nH]c2c1 [Example 10, 3-Morpholin-4-ylmethyl-1H-indole-6-carboxylic acid (pyridin-3-ylmethyl)-amide]
Ki [1]: 5010 nM

O=C(c1ccc2c(CN3CCOCC3)c[nH]c2c1)N1CCCN(C2CCC2)CC1 [Example 9, (4-Cyclobutyl-[1,4]diazepan-1-yl)-(3-morpholin-4-ylmethyl-1H-indol-6-yl)-methanone]
Ki [1]: 1 nM

O=C(c1ccc2c(CN3CCCCC3)c[nH]c2c1)N1CCC(N2CCCC2=O)CC1 [Example 19, 1-[1-(3-Piperidin-1-ylmethyl-1H-indole-6-carbonyl)-piperidin-4-yl]-pyrrolidin-2-one]
Ki [1]: 260 nM

O=C(c1ccc2c(CN3CCCN(C4CCC4)CC3)c[nH]c2c1)N1CCC(CO)CC1 [Example 83, [3-(4-Cyclobutyl-[1,4]diazepan-1-ylmethyl)-1H-indol-6-yl]-(4-hydroxymethyl-piperidin-1-yl)-methanone]
Ki [1]: 27 nM

O=C(NCc1ccncc1)c1ccc2c(CN3CCCCC3)c[nH]c2c1 [Example 16, 3-Piperidin-1-ylmethyl-1H-indole-6-carboxylic acid (pyridin-4-ylmethyl)-amide]
Ki [1]: 327 nM

Cn1cc(CN2CCOCC2)c2ccc(C(=O)N3CCN(C4CC4)CC3)cc21 [Example 2, (4-Cyclopropyl-piperazin-1-yl)-(1-methyl-3-morpholin-4-ylmethyl-1H-indol-6-yl)-methanone]
Ki [1]: 46 nM

CC(C)N1CCCN(Cc2c[nH]c3cc(C(=O)N4CCOCC4)ccc23)CC1 [Example 78, [3-(4-Isopropyl-[1,4]diazepan-1-ylmethyl)-1H-indol-6-yl]-morpholin-4-yl-methanone]
Ki [1]: 42 nM

O=C(c1ccc2c(CN3CCCCC3)c[nH]c2c1)N1CCc2nc[nH]c2C1 [Example 18, (3-Piperidin-1-ylmethyl-1H-indol-6-yl)-(3,4,6,7-tetrahydro-imidazo[4,5-c]pyridin-5-yl)-methanone]
Ki [1]: 5010 nM

O=C(c1ccc2c(CN3CCOCC3)c[nH]c2c1)N1CCCN(C2CC2)CC1 [Example 8, (4-Cyclopropyl-[1,4]diazepan-1-yl)-(3-morpholin-4-ylmethyl-1H-indol-6-yl)-methanone]
Ki [1]: 1 nM

CC(C)N1CCCN(Cc2c[nH]c3cc(C(=O)N4CCSCC4)ccc23)CC1 [Example 72, [3-(4-Isopropyl-[1,4]diazepan-1-ylmethyl)-1H-indol-6-yl]-thiomorpholin-4-yl-methanone]
Ki [1]: 36 nM

CC(C)N1CCN(C(=O)c2ccc3c(CN4CCC(O)(c5ccccc5)CC4)c[nH]c3c2)CC1 [Example 65, [3-(4-Hydroxy-4-phenyl-piperidin-1-ylmethyl)-1H-indol-6-yl]-(4-isopropyl-piperazin-1-yl)-methanone]
Ki [1]: 1 nM

CC(C)N1CCN(C(=O)c2ccc3c(CN4CCOCC4)cn(S(C)(=O)=O)c3c2)CC1 [Example 26, (4-Isopropyl-piperazin-1-yl)-(1-methanesulfonyl-3-morpholin-4-ylmethyl-1H-indol-6-yl)-methanone]
Ki [1]: 18 nM

CN(C)C1CCN(Cc2c[nH]c3cc(C(=O)N4CCC(CO)CC4)ccc23)C1 (stereo not shown) [Example 94, [3-(3-Dimethylamino-pyrrolidin-1-ylmethyl)-1H-indol-6-yl]-(4-hydroxymethyl-piperidin-1-yl)-methanone]
Ki [1]: 27 nM

CC(C)N1CCN(C(=O)c2ccc3c(CN4CCCOCC4)c[nH]c3c2)CC1 [Example 59, (4-Isopropyl-piperazin-1-yl)-(3-[1,4]-oxazepan-4-ylmethyl-1H-indol-6-yl)-methanone]
Ki [1]: 1 nM

O=C(NCc1cccnc1)c1ccc2c(CN3CCCCC3)c[nH]c2c1 [Example 15, 3-Piperidin-1-ylmethyl-1H-indole-6-carboxylic acid (pyridin-3-ylmethyl)-amide]
Ki [1]: 117 nM

O=C(c1ccc2[nH]cc(CN3CCOCC3)c2c1)N1CCN(C2CCC2)CC1 [Example 40, (4-Cyclobutyl-piperazin-1-yl)-(3-morpholin-4-ylmethyl-1H-indol-5-yl)-methanone]
Ki [1]: 33 nM

CN(C)C1CCN(Cc2c[nH]c3cc(C(=O)N4CCCCCC4)ccc23)C1 (stereo not shown) [Example 92, Azepan-1-yl-[3-(3-dimethylamino-pyrrolidin-1-ylmethyl)-1H-indol-6-yl]-methanone]
Ki [1]: 15 nM

O=C(c1ccc2c(CN3CCCN(C4CCC4)CC3)c[nH]c2c1)N1CCC(c2ccccc2)CC1 [Example 89, [3-(4-Cyclobutyl-[1,4]diazepan-1-ylmethyl)-1H-indol-6-yl]-(4-phenyl-piperidin-1-yl)-methanone]
Ki [1]: 31 nM

CC(C)N1CCCN(Cc2c[nH]c3cc(C(=O)N4CCC(c5ccccc5)CC4)ccc23)CC1 [Example 97, [3-(4-Isopropyl-[1,4]diazepan-1-ylmethyl)-1H-indol-6-yl]-(4-phenyl-piperidin-1-yl)-methanone]
Ki [1]: 59 nM

CN(C)C1CCN(Cc2c[nH]c3cc(C(=O)N4CCSCC4)ccc23)C1 (stereo not shown) [Example 69, [3-(3-Dimethylamino-pyrrolidin-1-ylmethyl)-1H-indol-6-yl]-thiomorpholin-4-yl-methanone]
Ki [1]: 19 nM

O=C(c1cccc2c(CN3CCN(C4CCC4)CC3)c[nH]c12)N1CCCCC1 [Example 36, [3-(4-Cyclobutyl-piperazin-1-ylmethyl)-1H-indol-7-yl]-piperidin-1-yl-methanone]
Ki [1]: 81 nM

CN(C)C1CCN(Cc2c[nH]c3cc(C(=O)N4CCC(Cc5ccccc5)CC4)ccc23)CC1 [Example 100, (4-Benzyl-piperidin-1-yl)-[3-(4-dimethylamino-piperidin-1-ylmethyl)-1H-indol-6-yl]-methanone]
Ki [1]: 233 nM

O=C(c1ccc2c(CN3CCC(N4CCCCC4)CC3)c[nH]c2c1)N1CCSCC1 [Example 67, (3-[1,4′]Bipiperidinyl-1′-ylmethyl-1H-indol-6-yl)-thiomorpholin-4-yl-methanone]
Ki [1]: 171 nM
